{"source": "patent US8722652B2", "about": "“Acute treatment of social phobia” (Pherin Pharmaceuticals, Inc., priority 2005, dated 2014)", "assay_type_in_all_cases": "in vivo, human", "key": {"[1]": {"tested_on": "patients diagnosed with generalized anxiety disorder", "experiment": "Acute anxiety symptom scores (HAM-A, COVI, CGI) after delivery to the vomeronasal organ of patients with generalized anxiety disorder"}, "vomeronasal receptors": {"tested_on": "vomeronasal receptors", "experiment": "Electrovomerogram dose-response (mass receptor potential of the vomeronasal receptors), local aerosol delivery with Multifunctional Miniprobe", "method": "The effective amount of androsta-4,16-dien-3β-ol administered was determined in dose-response studies where the amplitude of the mass receptor potential of the vomeronasal receptors (electrogram of the vomeronasal organ or electrovomerogram) was recorded from volunteers diagnosed with generalized anxiety disorder (GAD), while locally delivering different concentrations of the steroid in aerosol form, using a Multifunctional Miniprobe® described in U.S. Pat. No. 5,303,703. This electrovomerogram allows precise measuring of the concentration dependent effect of locally delivered androsta-4,16-dien-3β-ol to vomeronasal receptors, and calculation of the half-maximal concentration, the Effective Concentration 50 (EC50).\nAndrosta-4,16-dien-3β-ol was delivered directly to the vomeronasal organ pit of anxious patients using the Multifunctional Miniprobe®, consisting of a concentric arrangement of Teflon® tubes having an inner non-polarized silver wire recording-electrode. […] The electrovomerogram recorded with the surface silver-wire electrode was electronically amplified and continuously monitored in a computer and a dose-response curve was obtained by plotting the peak amplitude of electrovomerograms produced by several different amounts of androsta-4,16-dien-3β-ol (ranging from 0 (control) to 1000 picograms). […]"}, "[2]": {"tested_on": "patients diagnosed with generalized social phobia", "experiment": "Phase-2 randomized double-blind study: public speaking and social interaction challenges in social phobia patients, intranasal spray", "from_the_text": "A Phase-2 Randomized, Double-blind, Crossover Study of the Use of Single Doses of [3β]-Androsta-4,16-dien-3-ol for Management of the Symptoms of Social phobia\nThe following describes a study of the effects of the vomeropherin [3β]-androsta-4,16-dien-3-ol on human female patients suffering from social phobia.\nThe study comprised 40 patients with clinical diagnosis of Social Phobia. Each patient was randomly assigned to one of the following double-blind treatment groups: 800 nanogram [3β]-Androsta-4,16-dien-3-ol or placebo delivered intranasally in spray form. Each patient participated in the Treatment Phase as follows.\nFirst Visit: the patient visited the study center and the following activities were conducted during this visit: Pre-Challenge: After arrival at the study center, the patient completed self-reports of their usual anxiety symptoms. Public Speaking Challenge: The patient was administered a spray (50 microliters) of placebo to each nostril, and the procedures for the Public Speaking Challenge were then explained to the patient. The patient was given four minutes to prepare one of several topics for a four-minute speech, without notes, in front of an audience of several people who evaluated the speech and videotaped it. Immediately after completing the preparation period, the patient completed self-reports of their anticipatory anxiety and the Investigator then rated the patient's anticipatory anxiety. The patient gave their speech. Immediately after completing the speech, the patient completed self-reports of anxiety experienced during the speech. The Investigator then rated the anxiety experienced by the patient. Social Interaction Challenge: Approximately one hour after completion of the Public Speaking Challenge, the patient was administered another dose of placebo in each nostril, and the procedures for a Social Interaction Challenge appropriate for one of the patient's most-feared social interaction situations were then described to the patient. Then, the patient completed self-reports of their anticipatory anxiety and the Investigator rated the patient's anticipatory anxiety. Then, the patient participated in a four-minute mock social interaction while being observed by several raters and videotaped. Immediately after completing the social interaction, the patient completed self-reports of anxiety experienced during the interaction. Then, the Investigator rated the anxiety experienced by the patient. Those patients that during the first visit responded to placebo during the public speaking or the social interaction challenge were terminated from the study at that time. Patients non-responding to placebo during the first visit participated in a second visit where they were randomly dosed again with placebo, or with 800 nanograms androsta-4,16-dien-3β-ol per nostril (total dose=1,600 nanograms) delivered in spray form. Each patient was challenged and also the anxiety symptoms were scores using the same procedure performed during first visit.\nThe mean score obtained during the first visit (baseline scores) for each, anticipatory public speaking, performance public speaking, anticipatory social interaction and performance social interaction, was subtracted from the mean score (same parameter) obtained during the second visit. The result is a measure of symptom improvement."}, "[3]": {"details": "1 nanogram to the vomeronasal organ, GAD patients n = 20"}, "[4]": {"details": "1600 nanogram intranasally, n = 40, Mean Baseline Score − Mean Score After Treatment"}}, "data": [{"smiles": "C[C@@]12C=CC[C@H]1[C@@H]1CCC3=C[C@@H](O)CC[C@]3(C)[C@H]1CC2", "note": "[androsta-4,16-dien-3β-ol]", "values": [{"measurement": "Mean acute symptom improvement, CGI (Mean Baseline Score − Mean Score after Treatment)", "setting": "[1]; [3]", "result": 1.17}, {"measurement": "Mean acute symptom improvement, COVI (Mean Baseline Score − Mean Score after Treatment)", "setting": "[1]; [3]", "result": 2.8}, {"measurement": "Mean acute symptom improvement, HAM-A (Mean Baseline Score − Mean Score after Treatment)", "setting": "[1]; [3]", "result": 10.6}, {"measurement": "Acute anxiety symptoms scores (HAM-A, COVI, CGI)", "setting": "[1]; concentrations above the EC50, 20 human female GAD patients, effect lasting 30 minutes after intranasal administration", "result": "significantly reduced"}, {"measurement": "EC50 (half-maximal concentration, electrovomerogram peak amplitude)", "setting": "vomeronasal receptors; delivered directly to vomeronasal organ pit, aerosol from propylene glycol, GAD volunteers", "result": 0.5, "unit": "nanograms"}, {"measurement": "KD", "setting": "vomeronasal receptors; set equal to EC50 (linear receptor occupancy-response, model of A. J. Clark)", "result": 0.5, "unit": "ng"}, {"measurement": "Anticipatory and Performance anxiety scores", "setting": "[2]; 5 minutes after administration, Social Interaction and Public Speaking", "result": "notably and significantly decreased"}, {"measurement": "Mean Symptom Improvement, Anticipatory Public Speaking Anxiety", "setting": "[2]; [4]", "result": 10.417}, {"measurement": "Mean Symptom Improvement, Anticipatory Social Interaction Anxiety", "setting": "[2]; [4]", "result": 12.166}, {"measurement": "Mean Symptom Improvement, Performance Public Speaking Anxiety", "setting": "[2]; [4]", "result": 26.294}, {"measurement": "Mean Symptom Improvement, Performance Social Interaction Anxiety", "setting": "[2]; [4]", "result": 14.197}, {"measurement": "Symptom improvement versus placebo", "setting": "[2]; second visit versus first-visit baseline scores", "result": "much greater and significant symptom improvement than placebo"}]}]}
